Test results as given in patent US20240156836A1, “METHODS OF TREATING TE[…]” (priority 2018, published 2024).

Columns and labels:
[1] = Dose titration concordance analysis (C6 vs Cavg) in hypogonadal men treated with oral TU; assay type: in vivo
Source text: One of the goals of this study was to determine whether the T concentration in blood samples collected into Plain tubes (yielding serum) can be used for making dose titration decisions. In previous studies, dose titration decisions were based on T concentrations in NaF-EDTA plasma.
The goal of dose-titration in men treated with oral TU is to bring the testosterone Cavg into the eugonadal range. Because titration decisions based on testosterone Cavg are not practical in real world clinical setting, single sample T concentrations can be used as surrogates of Cavg. Concordance analysis estimates how well dose titration based on two different measures (e.g., Cavg v. C6) work in guiding dose titration. […] However, to determine total concordance, effective off-diagonal titration also must be determined. Effective off-diagonal titration can be estimated for the following reasons. […] Second, the titration boundaries (425 to 970 ng/dL) fall within the eugonadal boundaries (300 to 1100 ng/dL), and the eugonadal range is wide (3.5 fold) compared to the largest dose increment (33%) or decrement (25%). This means that the dose increments/decrements employed can allow movement within the eugonadal range (e.g. increasing the dose of someone with a Cavg of 400 ng/dL will raise the Cavg to a maximum of 532 ng/dL [400×1.33]). Similarly, when titration decisions based on C6 are different from those based on Cavg, the outcome will often be a Cavg in the eugonadal range. For example, when a patient's C6 is less than 425 ng/dL (indicating a dose increase is required), but whose Cavg is 600 ng/dL (indicating no titration), the impact of titrating based on C6 is that the Cavg will increase but remain in the eugonadal range. The largest dose increase will result in a 33% increase in exposure which, in this case, will raise the Cavg to 798 ng/dL. Therefore, despite titration based on C6, this patient's Cavg is not likely to rise above the upper boundary of the eugonadal range. Thus, the titration decision based on C6 is effectively concordant with that based on Cavg, since both titration decisions will result in a patient with a Cavg in the eugonadal range. Selected cells in Table 3 indicate a patient's Cavg that would result in effective off-diagonal titration. Therefore, when comparing the effectiveness of dose-titration decisions based on C6 and Cavg, both concordance (on-diagonal agreement between C6 and Cavg) and effective off-diagonal agreement must be considered) [i.e., total concordance (percent of patients treated with oral TU who fall into given concordance boxes) is defined as the sum of on-diagonal and effective off-diagonal concordance (see area in Table 3 defined by heavy line). In the example presented, the C6 value is a serum value derived from a measured NaF-EDTA plasma value and a conversion factor that enables the conversion of NaF-EDTA plasma data to be converted to an equivalent serum data.
These reflect an on-diagonal concordance of 75% and 63% and an effective off-diagonal titration decision of 24% and 36% for Visit 2 and Visit 4b, respectively. Therefore, dose titration based on C6 can effectively adjust a patient's oral TU dose such that their Cavg is in the eugonadal range.

[2] = Experimental: Testosterone undecanoate is metabolized into testosterone. Its degradation in whole blood into testosterone has been studied in conditions typically used in clinical trials.
Prior to discharge from the clinical facility, the subjects will be instructed to take 396 mg TU by mouth immediately prior to their dinner meal on Day 1, then twice daily on Days 2-6 immediately prior to their breakfast and dinner meals, and on Day 7 in the morning, immediately prior to their breakfast meal.
Subjects will return to the Clinic on Day 7 in the late afternoon (before dinner) with their study medication. Upon arrival at the clinic, their study drug will be counted to determine compliance during Day 1 through Day 7 post-AM dose. They will then be administered the study drug 396 mg TU by mouth immediately prior to a dinner meal (containing 30 g fat) which will be provided. Subjects will be instructed to consume the dinner in approximately 20 minutes. Subjects will remain in the unit overnight.
On the 8th day, 5 hrs after their AM meal, blood is collected in plain, EDTA and NaF-EDTA tubes. The plain tubes sit at room temperature (RT). The EDTA and NaF-EDTA tubes are placed on ice.
Samples will be collected into multiple Plain, EDTA and NaF-EDTA tubes. The Plain tube will be incubated at RT to allow blood clotting, as recommended by Clinical and Laboratory Standards Institute (CLSI 2010). […]

## CCCCCCCCCCC(=O)O[C@H]1CC[C@H]2[C@@H]3CCC4=CC(=O)CC[C@]4(C)[C@H]3CC[C@]12C [TU, testosterone undecanoate]
[1]; Visit 2, C6 425-970 ng/dL, Cavg 350-800 ng/dL
  percent of patients: 15.2%
[1]; Visit 2, C6 425-970 ng/dL, Cavg <350 ng/dL
  percent of patients: 5.4%
[1]; Visit 2, C6 425-970 ng/dL, Cavg >800 ng/dL
  percent of patients: 2%
[1]; Visit 2, C6 425-970 ng/dL, Total
  percent of patients: 22.6%
[1]; Visit 2, C6 <425 ng/dL, Cavg 350-800 ng/dL
  percent of patients: 13.9%
[1]; Visit 2, C6 <425 ng/dL, Cavg <350 ng/dL
  percent of patients: 59.4%
[1]; Visit 2, C6 <425 ng/dL, Cavg >800 ng/dL
  percent of patients: 0%
[1]; Visit 2, C6 <425 ng/dL, Total
  percent of patients: 73.3%
[1]; Visit 2, C6 >970 ng/dL, Cavg 350-800 ng/dL
  percent of patients: 4.2%
[1]; Visit 2, C6 >970 ng/dL, Cavg <350 ng/dL
  percent of patients: 0%
[1]; Visit 2, C6 >970 ng/dL, Cavg >800 ng/dL
  percent of patients: 0.6%
[1]; Visit 2, C6 >970 ng/dL, Total
  percent of patients: 4.8%
[1]; Visit 2, Total, Cavg 350-800 ng/dL
  percent of patients: 33.3%
[1]; Visit 2, Total, Cavg <350 ng/dL
  percent of patients: 64.8%
[1]; Visit 2, Total, Cavg >800 ng/dL
  percent of patients: 2.6%
[1]; Visit 4b, C6 425-970 ng/dL, Cavg 350-800 ng/dL
  percent of patients: 25%
[1]; Visit 4b, C6 425-970 ng/dL, Cavg <350 ng/dL
  percent of patients: 10%
[1]; Visit 4b, C6 425-970 ng/dL, Cavg >800 ng/dL
  percent of patients: 0.6%
[1]; Visit 4b, C6 425-970 ng/dL, Total
  percent of patients: 35.6%
[1]; Visit 4b, C6 <425 ng/dL, Cavg 350-800 ng/dL
  percent of patients: 21.8%
[1]; Visit 4b, C6 <425 ng/dL, Cavg <350 ng/dL
  percent of patients: 37.5%
[1]; Visit 4b, C6 <425 ng/dL, Cavg >800 ng/dL
  percent of patients: 0%
[1]; Visit 4b, C6 <425 ng/dL, Total
  percent of patients: 59.3%
[1]; Visit 4b, C6 >970 ng/dL, Cavg 350-800 ng/dL
  percent of patients: 4.3%
[1]; Visit 4b, C6 >970 ng/dL, Cavg <350 ng/dL
  percent of patients: 0%
[1]; Visit 4b, C6 >970 ng/dL, Cavg >800 ng/dL
  percent of patients: 0.6%
[1]; Visit 4b, C6 >970 ng/dL, Total
  percent of patients: 4.9%
[1]; Visit 4b, Total, Cavg 350-800 ng/dL
  percent of patients: 51.1%
[1]; Visit 4b, Total, Cavg <350 ng/dL
  percent of patients: 47.5%
[1]; Visit 4b, Total, Cavg >800 ng/dL
  percent of patients: 1.2%
[1]; men treated with oral TU
  testosterone exposure versus dose: dose proportional
[2]
  degradation of TU in whole blood into testosterone: degrades extensively to testosterone
